Measurements taken from ChEMBL document CHEMBL2034948, “The design, synthesis, and biological evaluation of PIM kinase inhibitors” (Bioorg Med Chem Lett, 2012).

How the values were obtained:
Format in all cases: ADME, organism-based
[1] = Plasma concentration in mouse at 100 mg/kg, po after 1 hr; design: dose 100 mg/kg, route oral
[2] = Plasma concentration in mouse at 100 mg/kg, po after 4 hrs; design: dose 100 mg/kg, route oral
[3] = Clearance in rat at 5 mg/kg; design: dose 5 mg/kg; conditions: in vivo
[4] = Volume of distribution in rat at 5 mg/kg; design: dose 5 mg/kg; conditions: in vivo
[5] = Half life in rat at 5 mg/kg, iv; design: dose 5 mg/kg, route intravenous; conditions: in vivo
[6] = Half life in rat at 5 mg/kg, po; design: dose 5 mg/kg, route oral; conditions: in vivo
[7] = Oral bioavailability in rat at 5 mg/kg; conditions: in vivo
[8] = Cmax in rat at 5 mg/kg, iv; design: dose 5 mg/kg, route intravenous; conditions: in vivo
[9] = Cmax in rat at 5 mg/kg, po; design: dose 5 mg/kg, route oral; conditions: in vivo
Rattus norvegicus [10] = assay: Dose normalised AUC in rat at 5 mg/kg, iv; design: dose 5 mg/kg, route intravenous; conditions: in vivo
Rattus norvegicus [11] = assay: Dose normalised AUC in rat at 5 mg/kg, po; design: dose 5 mg/kg, route oral; conditions: in vivo
[12] = Clearance in rat at […]; design: dose 2.5 mg/kg; conditions: in vivo
[13] = Volume of distribution in rat at […]; design: dose 2.5 mg/kg; conditions: in vivo
[14] = Half life in rat at […], iv; design: dose 2.5 mg/kg, route intravenous; conditions: in vivo
[15] = Half life in rat at […], po; design: dose 2.5 mg/kg, route oral; conditions: in vivo
[16] = Oral bioavailability in rat at […]; conditions: in vivo
[17] = Cmax in rat at […], iv; design: dose 2.5 mg/kg, route intravenous; conditions: in vivo
[18] = Cmax in rat at […], po; design: dose 2.5 mg/kg, route oral; conditions: in vivo
Rattus norvegicus [19] = assay: Dose normalised AUC in rat at […], iv; design: dose 2.5 mg/kg, route intravenous; conditions: in vivo
Rattus norvegicus [20] = assay: Dose normalised AUC in rat at […], po; design: dose 2.5 mg/kg, route oral; conditions: in vivo

Structure (SMILES)	concentration at 1 h [1] [µM]	concentration at 4 h [2] [µM]	clearance [3] [mL/min/kg]	Vd [4] [L/kg]	half-life [5] [h]	half-life [6] [h]	bioavailability [7] [%]	Cmax [8] [µM]	Cmax [9] [µM]	AUC/dose (Rattus norvegicus [10]) [µM·kg·h/mg]	AUC/dose (Rattus norvegicus [11]) [µM·kg·h/mg]	clearance [12] [mL/min/kg]	Vd [13] [L/kg]	half-life [14] [h]	half-life [15] [h]	bioavailability [16] [%]	Cmax [17] [µM]	Cmax [18] [µM]	AUC/dose (Rattus norvegicus [19]) [µM·kg·h/mg]	AUC/dose (Rattus norvegicus [20]) [µM·kg·h/mg]
CN1C[C@@H]2C[C@H]1CN2Cc1nc2c(oc3ccc(Br)cc32)c(=O)[nH]1	11	7	34.1	7.1	2.6	2.6	86	1.5	0.4	1.2	0.9	–	–	–	–	–	–	–	–	–
O=c1[nH]c(CN2CCC2)nc2c1oc1ccc(Br)cc12	13	5	–	–	–	–	–	–	–	–	–	30.6	3.8	1	1	77	1.8	0.8	1.7	1.3
N[C@@H]1CCN(Cc2nc3c(oc4ccc(Br)cc43)c(=O)[nH]2)C1	6	5	56.2	6.2	1.4	1.6	13	1.8	0.1	0.8	0.1	–	–	–	–	–	–	–	–	–
O=c1[nH]c(CN2CC(O)C2)nc2c1oc1ccc(Br)cc12	78	22	–	–	–	–	–	–	–	–	–	13.5	2.4	8.4	3.7	56	3.5	1.2	2.6	1.5
O=c1[nH]c(CN2CC[C@@H](O)C2)nc2c1oc1ccc(Br)cc12	93	35	13.2	2.3	2.7	4.7	79	7.6	3.1	3.8	2.9	–	–	–	–	–	–	–	–	–
